Test results as given in the supplement of paper PMC10307832.

Assays:
Assay in all cases: relative viability (nuclei count vs DMSO), 5 days (fraction); higher = more cells survive
MLN4924 + Navitoclax = compound: NS(=O)(=O)OC[C@@H]1C[C@@H](n2ccc3c(N[C@H]4CCc5ccccc54)ncnc32)C[C@@H]1O [MLN4924] + CC1(C)CCC(c2ccc(Cl)cc2)=C(CN2CCN(c3ccc(C(=O)NS(=O)(=O)c4ccc(N[C@H](CCN5CCOCC5)CSc5ccccc5)c(S(=O)(=O)C(F)(F)F)c4)cc3)CC2)C1 [Navitoclax] (partner 0.5 µM)
In short: (§1)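 Relative viability was taken as the ratio of nuclei in treated wells to nuclei in vehicle wells. Lung cancer cell lines in 1536-well plates received compounds by pin tool one day after seeding, either one drug alone or a fixed anchor-drug dose plus five library-drug doses (not always all listed) in √10 steps. Nuclei were counted on 4× images after 5 days of treatment, and values are medians of duplicate plates.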

MLN4924 + Linsitinib = compound: NS(=O)(=O)OC[C@@H]1C[C@@H](n2ccc3c(N[C@H]4CCc5ccccc54)ncnc32)C[C@@H]1O [MLN4924] + C[C@]1(O)C[C@@H](c2nc(-c3ccc4ccc(-c5ccccc5)nc4c3)c3c(N)nccn32)C1 [Linsitinib] (partner 1 µM)
In short: as §1

Carboplatin + Pictilisib = compound: C1CC(C1)(C(=O)O)C(=O)O.[NH2-].[NH2-].[Pt+2] [Carboplatin] + CS(=O)(=O)N1CCN(Cc2cc3nc(-c4cccc5[nH]ncc45)nc(N4CCOCC4)c3s2)CC1 [Pictilisib] (partner 1 µM)
In short: as §1

GSK126 + Lapatinib = compound: CC[C@H](C)N1C=C(C2=C(C=C(C=C21)C3=CN=C(C=C3)N4CCNCC4)C(=O)NCC5=C(C=C(NC5=O)C)C)C [GSK126] + CS(=O)(=O)CCNCc1ccc(-c2ccc3ncnc(Nc4ccc(OCc5cccc(F)c5)c(Cl)c4)c3c2)o1 [Lapatinib] (partner 2 µM)
In short: as §1

Cell Line | relative viability (MLN4924 + Navitoclax; first compound 0.04 µM) | relative viability (MLN4924 + Navitoclax; first compound 0.1265 µM) | relative viability (MLN4924 + Navitoclax; first compound 0.4 µM) | relative viability (MLN4924 + Navitoclax; first compound 1.265 µM) | relative viability (MLN4924 + Navitoclax; first compound 4 µM) | relative viability (MLN4924 + Linsitinib; first compound 0.04 µM) | relative viability (MLN4924 + Linsitinib; first compound 0.1265 µM) | relative viability (MLN4924 + Linsitinib; first compound 0.4 µM) | relative viability (MLN4924 + Linsitinib; first compound 1.265 µM) | relative viability (MLN4924 + Linsitinib; first compound 4 µM) | relative viability (Carboplatin + Pictilisib; first compound 0.08 µM) | relative viability (Carboplatin + Pictilisib; first compound 0.253 µM) | relative viability (Carboplatin + Pictilisib; first compound 0.8 µM) | relative viability (Carboplatin + Pictilisib; first compound 2.53 µM) | relative viability (Carboplatin + Pictilisib; first compound 8 µM) | relative viability (GSK126 + Lapatinib; first compound 0.08 µM) | relative viability (GSK126 + Lapatinib; first compound 0.253 µM) | relative viability (GSK126 + Lapatinib; first compound 0.8 µM) | relative viability (GSK126 + Lapatinib; first compound 2.53 µM) | relative viability (GSK126 + Lapatinib; first compound 8 µM)
LU99A | 0.46 | 0.267 | 0.243 | 0.158 | 0.166 | 0.469 | 0.332 | 0.254 | 0.147 | 0.177 | 0.3 | 0.379 | 0.323 | 0.328 | 0.307 | 1.07 | 1 | 0.913 | 1 | 0.99
NCI-H1299 | 1.1 | 0.886 | 0.472 | 0.249 | 0.247 | 0.903 | 0.768 | 0.441 | 0.189 | 0.186 | 0.785 | 0.663 | 0.62 | 0.739 | 0.617 | 0.968 | 0.997 | 0.952 | 0.931 | 0.929
NCI-H1355 | 0.982 | 0.847 | 0.657 | 0.268 | 0.302 | 0.875 | 0.704 | 0.789 | 0.207 | 0.211 | 0.394 | 0.537 | 0.461 | 0.431 | 0.454 | 1.04 | 1.07 | 0.989 | 0.967 | 0.992
HCC-15 | 0.526 | 0.3 | 0.185 | 0.0995 | 0.114 | 0.558 | 0.249 | 0.16 | 0.0968 | 0.104 | 0.781 | 0.715 | 0.749 | 0.702 | 0.498 | 0.841 | 0.888 | 0.806 | 0.785 | 0.727
LXF-289 | 0.848 | 0.664 | 0.524 | 0.174 | 0.113 | 0.785 | 0.645 | 0.417 | 0.224 | 0.143 | 0.889 | 0.883 | 0.8 | 0.832 | 0.766 | 0.92 | 0.84 | 0.894 | 0.885 | 0.881
201T | 1.28 | 1.21 | 1.2 | 0.514 | 0.556 | 1.22 | 1.29 | 1.17 | 0.481 | 0.505 | 0.69 | 0.667 | 0.736 | 0.684 | 0.634 | 1.04 | 1.04 | 1.09 | 1.1 | 1.16
HOP-62 | 0.553 | 0.238 | 0.171 | 0.111 | 0.0613 | 0.433 | 0.272 | 0.151 | 0.0627 | 0.0635 | 0.527 | 0.747 | 0.663 | 0.64 | 0.65 | 1.17 | 1.05 | 1.07 | 1.06 | 0.937
NCI-H1703 | 0.133 | 0.14 | 0.188 | 0.133 | 0.124 | 0.235 | 0.241 | 0.157 | 0.111 | 0.146 | 0.261 | 0.229 | 0.231 | 0.251 | 0.245 | 1.08 | 1.14 | 0.917 | 1.23 | 1.09
NCI-H1975 | 1.15 | 1.27 | 1.14 | 0.571 | 0.309 | 0.991 | 1.17 | 0.825 | 0.234 | 0.226 | 0.324 | 0.305 | 0.306 | 0.315 | 0.302 | 0.952 | 0.898 | 0.916 | 0.852 | 0.888
NCI-H2023 | 1 | 0.758 | 0.362 | 0.109 | 0.0667 | 0.661 | 0.36 | 0.112 | 0.0836 | 0.0754 | 0.262 | 0.27 | 0.261 | 0.192 | 0.171 | 1.33 | 0.797 | 1.04 | 1.23 | 1.2
EBC-1 | 0.348 | 0.262 | 0.172 | 0.112 | 0.139 | 0.812 | 0.628 | 0.182 | 0.102 | 0.13 | 0.392 | 0.344 | 0.363 | 0.365 | 0.358 | 0.232 | 0.188 | 0.178 | 0.21 | 0.202
COR-L23 | 0.948 | 0.885 | 0.568 | 0.275 | 0.113 | 0.788 | 0.801 | 0.619 | 0.149 | 0.11 | 0.933 | 0.782 | 0.735 | 0.512 | 0.253 | 1.04 | 0.958 | 0.943 | 0.914 | 0.818
NCI-H1793 | 0.386 | 0.458 | 0.412 | 0.276 | 0.283 | 1.12 | 0.857 | 0.845 | 0.327 | 0.168 | 0.396 | 0.345 | 0.316 | 0.382 | 0.329 | 0.867 | 0.467 | 0.647 | 0.583 | 0.629
A549 | 1.02 | 0.991 | 0.197 | 0.04 | 0.0449 | 0.635 | 0.626 | 0.496 | 0.0571 | 0.047 | 0.579 | 0.51 | 0.527 | 0.459 | 0.125 | 1.06 | 1.08 | 0.946 | 0.932 | 0.934
CAL-12T | 1.11 | 1.11 | 0.469 | 0.398 | 0.204 | 0.717 | 0.636 | 0.237 | 0.135 | 0.143 | 0.484 | 0.398 | 0.345 | 0.376 | 0.486 | 0.63 | 0.674 | 0.615 | 0.809 | 0.644
NCI-H1993 | 0.962 | 0.618 | 0.584 | 0.505 | 0.584 | 0.937 | 0.719 | 0.68 | 0.632 | 0.584 | 0.805 | 0.891 | 0.745 | 0.869 | 0.811 | 0.884 | 0.737 | 0.753 | 0.821 | 0.712
ChaGo-K-1 | 0.708 | 0.574 | 0.394 | 0.309 | 0.326 | – | – | – | – | – | 1.01 | 0.713 | 0.615 | 0.463 | 0.376 | – | – | – | – | –
NCI-H441 | 0.708 | 0.489 | 0.357 | 0.138 | 0.173 | 0.47 | 0.374 | 0.205 | 0.111 | 0.159 | 0.56 | 0.588 | 0.414 | 0.492 | 0.433 | – | – | – | – | –
NCI-H3122 | 0.929 | 0.448 | 0.262 | 0.171 | 0.164 | 0.958 | 0.429 | 0.291 | 0.172 | 0.115 | 0.62 | 0.659 | 0.549 | 0.593 | 0.563 | 1.01 | 1.01 | 1.04 | 0.965 | 0.95
HCC-78 | 0.91 | 0.537 | 0.767 | 0.158 | 0.117 | 0.556 | 0.355 | 0.628 | 0.135 | 0.147 | 0.213 | 0.228 | 0.194 | 0.217 | 0.21 | 0.713 | 1.06 | 0.886 | 0.711 | 0.722
HCC-827 | 0.925 | 0.747 | 0.492 | 0.275 | 0.237 | 0.801 | 0.527 | 0.468 | 0.228 | 0.211 | 0.886 | 0.923 | 0.79 | 0.846 | 0.897 | 0.189 | 0.179 | 0.19 | 0.152 | 0.197
NCI-H358 | – | – | – | – | – | 0.918 | 1.06 | 0.304 | 0.183 | 0.181 | 0.373 | 0.366 | 0.321 | 0.448 | 0.376 | 0.487 | 0.461 | 0.525 | 0.454 | 0.51
LCLC-103H | – | – | – | – | – | 1.33 | 1.21 | 1.2 | 0.316 | 0.355 | 0.65 | 0.597 | 0.613 | 0.646 | 0.611 | – | – | – | – | –
ABC-1 | – | – | – | – | – | 0.875 | 0.795 | 0.618 | 0.238 | 0.218 | 0.749 | 0.783 | 0.782 | 0.68 | 0.535 | 1.26 | 1.29 | 1.07 | 1.18 | 0.872
NCI-H661 | – | – | – | – | – | 0.636 | 0.757 | 0.576 | 0.258 | 0.247 | 0.431 | 0.393 | 0.368 | 0.34 | 0.402 | 0.417 | 0.574 | 0.441 | 0.572 | 0.361
NCI-H1563 | – | – | – | – | – | 1.73 | 1.18 | 0.753 | 0.606 | 0.6 | 0.733 | 0.664 | 0.639 | 0.629 | 0.657 | 1.1 | 1.04 | 0.957 | 0.999 | 0.869
NCI-H650 | – | – | – | – | – | 0.611 | 0.604 | 0.266 | 0.186 | 0.174 | 0.948 | 1.03 | 0.826 | 0.791 | 0.562 | 0.833 | 0.838 | 0.97 | 0.978 | 0.955
NCI-H1650 | 1.02 | 0.739 | 0.438 | 0.156 | 0.176 | – | – | – | – | – | 0.741 | 0.651 | 0.563 | 0.519 | 0.416 | 0.828 | 0.798 | 0.739 | 0.854 | 0.755
NCI-H2170 | 0.709 | 0.313 | 0.34 | 0.144 | 0.164 | – | – | – | – | – | 0.361 | 0.266 | 0.357 | 0.33 | 0.283 | 0.253 | 0.266 | 0.319 | 0.288 | 0.27
